Source: patent US11939300B2, “Compounds and methods for treating autoimmune disorders by targeting HLA-DQ2” (ImmunoMolecular Therapeutics, Inc., priority 2020, dated 2024)

Tested on: HLA-DQ2
Assay: Inhibition of IL-2 secretion by TCR transductants stimulated by α-gliadin peptides presented by HLA-DQ2 expressing K562 cells (ELISA)
Type: cell-based, human
Conditions: for DQ2 IL2 Maximal % Inhibition: IL-2 secretion, at the concentration given in brackets; for concentration at which the compound exhibited maximum % inhibition (DQ2 IL2): from dose-response curve, figure in brackets in the cell
Protocol: Three commercially available analogues of the DQ2 binding molecules of the invention were tested for their ability to inhibit stimulation of T cell receptor (TCR) transductants in the presence of HLA-DQ2 expressing cells presenting known α-gliadin epitopes.
Using a previously published in vitro assay (Ostrov D, et al. Methyldopa blocks MHC class II binding to disease specific antigens in autoimmune diabetes. J Clin Invest. 2018:128(5)) we measured the ability of these DQ2 binding analogues to inhibit interleukin-2 (IL-2) secretion by TCR transductants stimulated by α-gliadin peptides presented by HLA-DQ2. Individual TCR transductants (recognizing α I-gliadin or α II-gliadin) were cultured with a gliadin peptide plus the small molecule analogues in the presence of HLA-DQ2 expressing K562 cells serving as antigen presenting cells. TCR transductants cultured with no gliadin peptide served as the negative control, and incubation with an anti-CD3 antibody (eBioscience; clone 2C11) served as a positive control for the TCR transductant. Secreted IL-2 in the culture supernatant was measured using a highly sensitive enzyme-linked immunosorbent assay (ELISA). […] Assays for effects on cell viability and for specificity, assayed in the absence of gliadin peptide or in the presence of a stimulating anti-CD3 antibody, were performed. A=71-100%; B=41-70%; C=11-40%; D=0-10%, NT=Not tested.

[1] = TCR transductants (α I- or α II-gliadin) + gliadin peptide + HLA-DQ2 K562 cells
[2] = Table 2, TCR transductants + gliadin peptide + HLA-DQ2 K562 cells

SMILES | DQ2 IL2 Maximal % Inhibition [1] | concentration at which the compound exhibited maximum % inhibition (DQ2 IL2) | DQ2 IL2 Maximal % Inhibition [2] | concentration at which the compound exhibited maximum % inhibition (DQ2 IL2) (Table 2)
CC(C)c1ccc(C(=O)NC2CCc3nn(CC4CCC4)c(=O)cc3C2)cc1 (stereo not drawn) [Compound 48] | A (A=71-100%) | 100 µM |  | 
CC(C)c1ccc(C(=O)NC2CCc3nn(CC4CCCCC4)c(=O)cc3C2)cc1 (stereo not drawn) [Compound 49] | A (A=71-100%) | 200 µM |  | 
CC(C)c1ccc(C(=O)NC2CCc3nn(Cc4ccccc4)c(=O)cc3C2)cc1 (stereo not drawn) [Compound 50] | A (A=71-100%) | 200 µM |  | 
COCCn1nc2c(cc1=O)CC(NC(=O)c1ccc(C(C)C)cc1)CC2 (stereo not drawn) [Compound 51] | B (B=41-70%) | 200 µM |  | 
CC(C)c1ccc(C(=O)NC2CCc3nn(C4CC4)c(=O)cc3C2)cc1 (stereo not drawn) [Compound 53] | A (A=71-100%) | 200 µM |  | 
CC(C)c1ccc(C(=O)NC2CCc3nn(C4CCCCC4)c(=O)cc3C2)cc1 (stereo not drawn) [Compound 54] | A (A=71-100%) | 200 µM |  | 
CC(C)c1ccc(C(=O)NC2CCc3nn(C4CCOCC4)c(=O)cc3C2)cc1 (stereo not drawn) [Compound 55] | A (A=71-100%) | 200 µM |  | 
CC(C)c1ccc(C(=O)NC2CCc3nn(C4CCC4)c(=O)cc3C2)cc1 (stereo not drawn) [Compound 56] | A (A=71-100%) | 200 µM |  | 
CC(C)c1ccc(C(=O)NC2CCc3nn(CC(F)(F)F)c(=O)cc3C2)cc1 (stereo not drawn) [Compound 57, 4-isopropyl-N-(3-oxo-2-(2,2,2-trifluoroethyl)-2,3,5,6,7,8-hexahydrocinnolin-6-yl)benzamide] | A (A=71-100%) | 200 µM |  | 
CC(C)c1ccc(C(=O)NC2CCc3nn(CC(C)(C)O)c(=O)cc3C2)cc1 (stereo not drawn) [Compound 58] | A (A=71-100%) | 200 µM |  | 
CC(C)c1ccc(C(=O)NC2CCc3nn(C4CCCC4)c(=O)cc3C2)cc1 (stereo not drawn) [Compound 59] | A (A=71-100%) | 200 µM |  | 
CCc1ccc(C(=O)NC2CCc3n[nH]c(=O)cc3C2)cc1 (stereo not drawn) [Compound 60] |  |  | A (A=71-100%) | 200 µM
Cn1nc2c(cc1=O)CC(NC(=O)c1ccc3ccccc3n1)CC2 (stereo not drawn) [Compound 61] |  |  | A (A=71-100%) | 200 µM
CC(C)Oc1ccc(C(=O)NC2CCc3nn(C)c(=O)cc3C2)cc1 (stereo not drawn) [Compound 62] |  |  | A (A=71-100%) | 200 µM
Cn1nc2c(cc1=O)CC(NC(=O)c1cccc(C(F)(F)F)c1)CC2 (stereo not drawn) [Compound 63] |  |  | A (A=71-100%) | 200 µM
